Data: patent US20150315241A1, “Antibiotic Peptides” (priority 2007, published 2015)
In brackets after ≈: the same amount, converted by molar mass. Where two headings read alike, the source gives them in different places. Where a SMILES comes first, the peptide text is derived from it. [ ]: non-standard residue; d: D form. Arg(NO2) = N=C(NCCC[C@H](N)C(=O)O)N[N+](=O)[O-]; NMeR = CN[C@@H](CCCNC(=N)N)C(=O)O; Cha = N[C@@H](CC1CCCCC1)C(=O)O; Cit = NC(=O)NCCC[C@H](N)C(=O)O; Ac6c = NC1(C(=O)O)CCCCC1; Orn = NCCC[C@H](N)C(=O)O; βAla = NCCC(=O)O

Experiments:
[1] = system: M. luteus ATCC 10240; format: cell-based, Micrococcus luteus
Procedure: (§1) The minimal inhibition concentrations (MIC) of the apidaecin-derived peptides and peptide-derivatives were determined by a growth inhibition assay using a serial peptide dilution in sterilized round-bottom 96-well plates (polystyrene, U-bottom, Greiner Bio-One GmbH) with a final volume of 100 μL per well. The bacteria, e.g., E. coli BL21 A1, were grown in nutrient broth (NB, Carl Roth GmbH+Co. KG, Karlsruhe, Germany) at 37° C. over night. To each well of the 96-well plate, 50 μL of the overnight culture adjusted to 5×10^6 CFU/mL in 1% TSB were added. Lyophilized peptides and peptidomimetics were dissolved in 1% TSB (tryptic soy broth) or water to give a final concentration of 250 μg/mL. Fifty μL of the peptide or peptidomimetics solution were added to the first well of a row on the plate and mixed. Fifty μL of the first well containing the peptide solution were transferred to the second well, mixed and again 50 μL transferred to the next well and so on. Thereby, a two-fold dilution series was obtained starting at 250 μg/mL in the first well down to 120 ng/mL in the 12th well of a row giving a final peptide or peptidomimetics concentration from 125 μg/mL (well 1) to 60 ng/mL (well 12). Plates were incubated at 37° C. for 20 hrs. The absorbance was measured at 595 nm using a TECAN micro plate spectrophotometer (Tecan, Germany). All peptides and peptidomimetics were measured in triplicates. Sterilized water was used as a negative control.
(§2) The bacteria strains were tested: • Eschericha coli 1103, 10233, BL 21 AI, DC 2, • Klebsiella pneumoniae 681, • Micrococcus luteus ATCC 10240, • Mycobacterium vaccae • Bactillus subtillis 347.

[2] = system: E. coli BL 21 AI; assay: Growth inhibition assay (MIC); format: cell-based, Escherichia coli; conditions: 1% TSB, 37° C., 20 hrs
Procedure: as §1, §2

| Molecule | MIC M. luteus ATCC 10240 ([1]; ATCC 10240, 20 h) [µg/mL] | MIC E. coli BL 21 AI [2] [µg/mL] | MIC M. luteus ATCC 10240 ([1]; 1% TSB, 37° C., 20 hrs) [µg/mL] |
| --- | --- | --- | --- |
| CC[C@H](C)[C@H](NC(=O)[C@H](CCCNC(=N)N)NC(=O)[C@@H]1CCCN1C(=O)[C@H](Cc1c[nH]cn1)NC(=O)[C@@H]1CCCN1C(=O)[C@@H]1CCCN1C(=O)[C@H](CCCNC(=N)N)NC(=O)[C@@H]1CCCN1C(=O)[C@H](CCC(N)=O)NC(=O)[C@@H]1CCCN1C(=O)[C@@H](NC(=O)[C@H](Cc1ccc(O)cc1)NC(=O)[C@@H](NC(=O)[C@@H]1CCCN1C(=O)[C@H](CCCNC(=N)N)NC(=O)[C@H](CC(N)=O)NC(=O)[C@H](CC(N)=O)NC(=O)[C@H](CCCN)NC(C)=O)C(C)C)[C@@H](C)CC)C(N)=O [compound 63] (Ac-[Orn]NNRPVYIPQPRPPHPRI-NH2) | 3.91 (≈ 1.77 µM) | 3.91 (≈ 1.77 µM) | – |
| CC[C@H](C)[C@H](NC(=O)[C@H](Cc1ccc(O)cc1)NC(=O)[C@@H](NC(=O)[C@@H]1CCCN1C(=O)[C@H](CCCNC(=N)N)NC(=O)[C@H](CC(N)=O)NC(=O)[C@H](CC(N)=O)NC(=O)[C@H](CCCN)NC(C)=O)C(C)C)C(=O)N1CCC[C@H]1C(=O)N[C@@H](CCCNC(=N)N)C(=O)N1CCC[C@H]1C(=O)N[C@@H](CCCNC(=N)N)C(=O)N1CCC[C@H]1C(=O)N1CCC[C@H]1C(=O)N[C@@H](Cc1c[nH]cn1)C(=O)N1CCC[C@H]1C(=O)N[C@H](CCCNC(=N)N)C(=O)N[C@@H](CC(C)C)C(N)=O [compound 152] (Ac-[Orn]NNRPVYIPRPRPPHP[dR]L-NH2) | 32 (≈ 14.3 µM) | 32 (≈ 14.3 µM) | – |
| H-GNNRPVYIAQPRPPHPRL-NH2 [compound 140] | 125 | >125 | – |
| CC[C@H](C)[C@H](NC(=O)[C@H](Cc1ccc(O)cc1)NC(=O)[C@@H](NC(=O)[C@@H]1CCCN1C(=O)[C@H](CCCNC(=N)N)NC(=O)[C@H](CC(N)=O)NC(=O)[C@H](CC(N)=O)NC(=O)[C@H](CCCN)NC(C)=O)C(C)C)C(=O)N1CCC[C@H]1C(=O)N[C@@H](CCC(N)=O)C(=O)N1CCC[C@H]1C(=O)N[C@@H](CCCNC(=N)N)C(=O)N1CCC[C@H]1C(=O)N1CCC[C@H]1C(=O)N[C@@H](Cc1c[nH]cn1)C(=O)N1CCC[C@H]1C(=O)N[C@@H](CCCNC(=N)N)C(=O)NCCC(N)=O [compound 74] (Ac-[Orn]NNRPVYIPQPRPPHPR[βAla]-NH2) | 7.81 (≈ 3.61 µM) | >125 | – |
| H-NNRPVYIPQPRPPHPRI-NH2 [compound 92] | 31.25 | 3.91 | – |
| H-GNNRPVYIAQPRPPHPAL-NH2 [compound 136] | >125 | >125 | – |
| CC[C@H](C)[C@H](NC(=O)[C@H](Cc1ccc(O)cc1)NC(=O)[C@@H](NC(=O)[C@@H]1CCCN1C(=O)[C@H](CCCNC(=N)N)NC(=O)[C@H](CC(N)=O)NC(=O)[C@H](CC(N)=O)NC(=O)CN)C(C)C)C(=O)N1CCC[C@H]1C(=O)N[C@@H](CCC(N)=O)C(=O)N1CCC[C@H]1C(=O)N[C@@H](CCCNC(=N)N)C(=O)N1CCC[C@H]1C(=O)N1CCC[C@H]1C(=O)N[C@@H](Cc1c[nH]cn1)C(=O)N1CCC[C@H]1C(=O)N[C@@H](CCCNC(=N)N)C(=O)N[C@@H](CC1CCCCC1)C(N)=O [compound 76] (H-GNNRPVYIPQPRPPHPR[Cha]-NH2) | 15.63 (≈ 7.28 µM) | 62.5 (≈ 29.1 µM) | – |
| CC[C@H](C)[C@H](NC(=O)[C@H](Cc1ccc(O)cc1)NC(=O)[C@@H](NC(=O)[C@@H]1CCCN1C(=O)[C@H](CCCNC(=N)N)NC(=O)[C@H](CC(N)=O)NC(=O)[C@H](CC(N)=O)NC(=O)[C@H](CCCN)NC(C)=O)C(C)C)C(=O)N1CCC[C@H]1C(=O)N[C@@H](CCCNC(=N)N)C(=O)N1CCC[C@H]1C(=O)N[C@@H](CCCNC(=N)N)C(=O)N1CCC[C@H]1C(=O)N1CCC[C@H]1C(=O)N[C@@H](Cc1c[nH]cn1)C(=O)N1CCC[C@H]1C(=O)N[C@@H](CCCNC(N)=N[N+](=O)[O-])C(=O)N[C@@H](CC(C)C)C(N)=O [compound 154] (Ac-[Orn]NNRPVYIPRPRPPHP[Arg(NO2)]L-NH2) | 32 (≈ 14 µM) | 16 (≈ 7.02 µM) | – |
| CC[C@H](C)[C@H](NC(=O)[C@H](Cc1ccc(O)cc1)NC(=O)[C@@H](NC(=O)[C@@H]1CCCN1C(=O)[C@H](CCCNC(=N)N)NC(=O)[C@H](CC(N)=O)NC(=O)[C@H](CC(N)=O)NC(=O)CN)C(C)C)C(=O)N1CCC[C@H]1C(=O)N[C@@H](CCC(N)=O)C(=O)N1CCC[C@H]1C(=O)N[C@@H](CCCNC(=N)N)C(=O)N1CCC[C@H]1C(=O)N1CCC[C@H]1C(=O)N[C@@H](Cc1c[nH]cn1)C(=O)N1CCC[C@H]1C(=O)N[C@@H](CCCNC(=N)N)C(=O)N[C@H](CC(C)C)C(N)=O [compound 77] (H-GNNRPVYIPQPRPPHPR[dL]-NH2) | 31.25 (≈ 14.8 µM) | >125 | – |
| CC[C@H](C)[C@H](NC(=O)[C@H](Cc1ccc(O)cc1)NC(=O)[C@@H](NC(=O)[C@@H]1CCCN1C(=O)[C@H](CCCNC(=N)N)NC(=O)[C@H](CC(N)=O)NC(=O)[C@H](CC(N)=O)NC(=O)[C@H](CCCN)NC(C)=O)C(C)C)C(=O)N1CCC[C@H]1C(=O)N[C@@H](CCCNC(=N)N)C(=O)N1CCC[C@H]1C(=O)N[C@@H](CCCNC(=N)N)C(=O)N1CCC[C@H]1C(=O)N1CCC[C@H]1C(=O)N[C@@H](Cc1c[nH]cn1)C(=O)N1CCC[C@H]1C(=O)N(C)[C@@H](CCCNC(=N)N)C(=O)N[C@@H](CC(C)C)C(N)=O [compound 153] (Ac-[Orn]NNRPVYIPRPRPPHP[NMeR]L-NH2) | 32 (≈ 14.2 µM) | 16 (≈ 7.12 µM) | – |
| H-GNNRPVYIPQPRPPHPAL-NH2 [compound 139] | >125 | >125 | – |
| CC[C@H](C)[C@H](NC(=O)[C@H](Cc1ccc(O)cc1)NC(=O)[C@@H](NC(=O)[C@@H]1CCCN1C(=O)[C@H](CCCNC(=N)N)NC(=O)[C@H](CC(N)=O)NC(=O)[C@H](CC(N)=O)NC(=O)[C@H](CCCN)NC(C)=O)C(C)C)C(=O)N1CCC[C@H]1C(=O)N[C@@H](CCC(N)=O)C(=O)N1CCC[C@H]1C(=O)N[C@@H](CCCNC(=N)N)C(=O)N1CCC[C@H]1C(=O)N1CCC[C@H]1C(=O)N[C@@H](Cc1c[nH]cn1)C(=O)N1CCC[C@H]1C(=O)N[C@@H](CCCNC(=N)N)C(=O)N[C@H](CC(C)C)C(N)=O [compound 72] (Ac-[Orn]NNRPVYIPQPRPPHPR[dL]-NH2) | 7.81 (≈ 3.54 µM) | >125 | – |
| CC[C@H](C)[C@H](NC(=O)[C@H](CCCNC(=N)N)NC(=O)[C@@H]1CCCN1C(=O)[C@H](Cc1c[nH]cn1)NC(=O)[C@@H]1CCCN1C(=O)[C@@H]1CCCN1C(=O)[C@H](CCCNC(=N)N)NC(=O)[C@@H]1CCCN1C(=O)[C@H](CCCNC(N)=O)NC(=O)[C@@H]1CCCN1C(=O)[C@@H](NC(=O)[C@H](Cc1ccc(O)cc1)NC(=O)[C@@H](NC(=O)[C@@H]1CCCN1C(=O)[C@H](CCCNC(=N)N)NC(=O)[C@H](CC(N)=O)NC(=O)[C@H](CC(N)=O)NC(=O)CN)C(C)C)[C@@H](C)CC)C(N)=O [compound 89] (H-GNNRPVYIP[Cit]PRPPHPRI-NH2) | – | 1.95 (≈ 0.913 µM) | 15.63 (≈ 7.32 µM) |
| CC[C@H](C)[C@H](NC(=O)[C@H](Cc1ccc(O)cc1)NC(=O)[C@@H](NC(=O)[C@@H]1CCCN1C(=O)[C@H](CCCNC(=N)N)NC(=O)[C@H](CC(N)=O)NC(=O)[C@H](CC(N)=O)NC(=O)[C@H](CCCN)NC(C)=O)C(C)C)C(=O)N1CCC[C@H]1C(=O)N[C@@H](CCC(N)=O)C(=O)N1CCC[C@H]1C(=O)N[C@@H](CCCNC(=N)N)C(=O)N1CCC[C@H]1C(=O)N1CCC[C@H]1C(=O)N[C@@H](Cc1c[nH]cn1)C(=O)N1CCC[C@H]1C(=O)N[C@@H](CCCNC(=N)N)C(=O)NC1(C(N)=O)CCCCC1 [compound 75] (Ac-[Orn]NNRPVYIPQPRPPHPR[Ac6c]-NH2) | 7.81 (≈ 3.52 µM) | >125 | – |
| H-GNNRPVYIPRPRPPHPRLV-OH [compound 69] | 0.24 | 7.81 | – |
| H-RPVYIPQPRPPHPRL-NH2 [compound 142] | 125 | 125 | – |
| CC[C@H](C)[C@H](NC(=O)[C@H](Cc1ccc(O)cc1)NC(=O)[C@@H](NC(=O)[C@@H]1CCCN1C(=O)[C@H](CCCNC(=N)N)NC(=O)[C@H](CC(N)=O)NC(=O)[C@H](CC(N)=O)NC(=O)[C@H](CCCN)NC(C)=O)C(C)C)C(=O)N1CCC[C@H]1C(=O)N[C@@H](CCCNC(=N)N)C(=O)N1CCC[C@H]1C(=O)N[C@@H](CCCNC(=N)N)C(=O)N1CCC[C@H]1C(=O)N1CCC[C@H]1C(=O)N[C@@H](Cc1c[nH]cn1)C(=O)N1CCC[C@H]1C(=O)N[C@@H](CCCNC(N)=O)C(=O)N[C@@H](CC(C)C)C(N)=O [compound 150] (Ac-[Orn]NNRPVYIPRPRPPHP[Cit]L-NH2) | 32 (≈ 14.3 µM) | 32 (≈ 14.3 µM) | – |
